# Results published in patent publication US20230382924A1, “MODULATORS OF CYSTIC FIBROSIS TRANSMEMBRANE CONDUCTANCE REGULATOR” (VERTEX PHARMACEUTICALS INCORPORATED, priority 2020, published 2023).
# Experiments:
# CFTR [1] = target: T1, CFTR (Homo sapiens, UniProt P13569); assay: Membrane Potential Dye, Enteroid Assay B; format: cell-based; conditions: Table 9; for EC50: read-out: Ent. B EC50
# Protocol: Base medium (ADF+++) consisted of Advanced DMEM/Ham's F12, 2 mM Glutamax, 10 mM HEPES, […] penicillin/streptomycin.
# Bath 1 Buffer consisted of 1 mM MgCl2, 160 mM NaCl, 4.5 mM KCl, 10 mM HEPES, 10 mM Glucose, 2 mM CaCl2).
# Chloride Free Buffer consisted of 1 mM Magnesium Gluconate, 2 mM Calcium Gluconate, 4.5 mM Potassium Gluconate, 160 mM Sodium Gluconate, 10 mM HEPES, 10 mM Glucose.
# Bath 1 Dye Solution consisted of Bath 1 Buffer, 0.04% Pluronic F127, 20 μM Methyl Oxonol, 30 μM CaCCinh-A01, 30 μM Chicago Sky Blue.
# Chloride Free Dye Solution consisted of Chloride Free Buffer, 0.04% Pluronic F127, 20 μM Methyl Oxonol, 30 μM CaCCinh-A01, 30 μM Chicago Sky Blue.
# 3. Enteroid Cell Harvesting and Seeding
# Cells were recovered in cell recovery solution, collected by centrifugation at 650 rpm for 5 min at 4° C., resuspended in TryPLE and incubated for 5 min at 37° C. Cells were then collected by centrifugation at 650 rpm for 5 min at 4° C. and resuspended in IEMM containing 10 μM ROCK inhibitor (RI).
# 5. Membrane Potential Dye, Enteroid Assay B
# Briefly, cells were washed 5 times in Bath 1 Buffer. Bath 1 Dye Solution was added and the cells were incubated for 25 min at room temperature. Following dye incubation, cells were washed 3 times in Chloride Free Dye Solution. Chloride transport was initiated by addition of Chloride Free Dye Stimulation Solution and the fluorescence signal was read for 15 min.
# CFTR [2] = target: T1, CFTR; assay: Membrane Potential Dye, Enteroid Assay A; format: cell-based; conditions: for EC50: read-out: Ent. A EC50
# Outline: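 Enteroid cells were loaded with methyl oxonol membrane potential dye (plus CaCCinh-A01 and Chicago Sky Blue) for 25 min at room temperature. Chloride transport was started by switching to chloride-free gluconate stimulation solution, with fluorescence read for 15 min. Activity was expressed as % of a triple-combination CFTR modulator control (3 μM, 3 μM, 300 nM acute).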
# T1 sequence (P13569 with tags, fused parts or gaps DEL508-508): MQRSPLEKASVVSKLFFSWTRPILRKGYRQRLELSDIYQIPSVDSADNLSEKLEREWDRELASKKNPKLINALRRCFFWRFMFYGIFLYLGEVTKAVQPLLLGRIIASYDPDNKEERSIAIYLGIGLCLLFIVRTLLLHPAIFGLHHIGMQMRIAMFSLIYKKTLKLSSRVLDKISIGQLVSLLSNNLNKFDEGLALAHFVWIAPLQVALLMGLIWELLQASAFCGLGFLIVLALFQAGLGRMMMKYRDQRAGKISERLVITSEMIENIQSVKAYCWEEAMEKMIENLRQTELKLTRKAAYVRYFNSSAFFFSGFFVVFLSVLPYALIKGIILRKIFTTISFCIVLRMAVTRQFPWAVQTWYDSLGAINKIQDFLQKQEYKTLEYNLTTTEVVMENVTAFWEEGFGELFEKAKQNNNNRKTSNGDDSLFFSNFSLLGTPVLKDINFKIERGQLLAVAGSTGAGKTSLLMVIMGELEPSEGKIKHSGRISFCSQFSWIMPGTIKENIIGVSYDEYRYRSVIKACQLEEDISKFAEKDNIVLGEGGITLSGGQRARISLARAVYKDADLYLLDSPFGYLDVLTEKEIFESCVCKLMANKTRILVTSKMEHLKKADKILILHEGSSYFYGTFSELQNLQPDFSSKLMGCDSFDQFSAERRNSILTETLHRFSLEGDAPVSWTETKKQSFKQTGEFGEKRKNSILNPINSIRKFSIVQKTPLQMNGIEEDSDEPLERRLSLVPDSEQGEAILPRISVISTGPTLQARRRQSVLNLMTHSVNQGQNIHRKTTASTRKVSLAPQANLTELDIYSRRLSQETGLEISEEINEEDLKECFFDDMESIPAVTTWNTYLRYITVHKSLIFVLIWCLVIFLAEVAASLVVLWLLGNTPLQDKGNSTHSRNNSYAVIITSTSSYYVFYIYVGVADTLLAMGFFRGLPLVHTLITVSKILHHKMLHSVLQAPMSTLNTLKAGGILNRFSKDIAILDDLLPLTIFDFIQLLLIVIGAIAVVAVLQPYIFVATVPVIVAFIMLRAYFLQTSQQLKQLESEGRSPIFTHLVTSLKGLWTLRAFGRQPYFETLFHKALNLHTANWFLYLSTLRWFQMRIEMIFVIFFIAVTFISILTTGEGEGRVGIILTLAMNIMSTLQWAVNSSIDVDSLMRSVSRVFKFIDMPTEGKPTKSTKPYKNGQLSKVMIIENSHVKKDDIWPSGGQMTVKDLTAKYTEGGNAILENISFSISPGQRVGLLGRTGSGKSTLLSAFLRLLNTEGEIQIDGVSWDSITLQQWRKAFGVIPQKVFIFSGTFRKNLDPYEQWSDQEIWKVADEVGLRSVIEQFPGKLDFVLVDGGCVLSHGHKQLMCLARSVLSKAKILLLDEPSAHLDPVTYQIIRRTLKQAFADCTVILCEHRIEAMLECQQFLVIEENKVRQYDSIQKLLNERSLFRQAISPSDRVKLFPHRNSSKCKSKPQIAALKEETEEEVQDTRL
smiles,measurement,setting,value
O=C1N[C@@H]2CCCCCCc3ccccc3-c3cc(nc(n3)NS(=O)(=O)c3cccc1c3)OC2 [Compound 216],Ent. B Max Activity,CFTR [1],+++ (+++ is >60%)
same,EC50,CFTR [1],< 1 µM
Cc1cccc(C)c1-c1cc2nc(n1)NS(=O)(=O)c1cc(n(C)n1)C(=O)N[C@H](CC(C)(C)C)CO2 [Compound 358],Ent. B Max Activity,CFTR [1],+++ (+++ is >60%)
same,EC50,CFTR [1],< 1 µM
Cc1cccc(C)c1-c1cc2nc(n1)NS(=O)(=O)c1cc(n(C)n1)C(=O)N[C@H](C)C(c1ccc(C(C)(C)C)cc1)O2 (stereo in doubt) [Compound 172],Ent. B Max Activity,CFTR [1],++ (++ is 30-60%)
same,EC50,CFTR [1],< 1 µM
"Cc1cccc(C)c1-c1cc2nc(n1)NS(=O)(=O)c1cc(nn1C)C(=O)N[C@H](CC(C)(C)C)CO2 [Compound 77, (10R)-15-(2,6-Dimethylphenyl)-10-(2,2-dimethylpropyl)-5-methyl-3,3-dioxo-12-oxa-3λ^6-thia-2,5,6,9,16,17-hexazatricyclo[11.3.1.14,7]octadeca-1(17),4(18),6,13,15-pentaen-8-one]",Ent. B Max Activity,CFTR [1],++ (++ is 30-60%)
same,EC50,CFTR [1],1 to 3 µM
Cc1cccc(C)c1-c1cc2nc(n1)NS(=O)(=O)c1cccc(c1)C(=O)NC[C@H](CC(C)C)CO2 (stereo in doubt) [Compound 368],Ent. B Max Activity,CFTR [1],++ (++ is 30-60%)
same,EC50,CFTR [1],< 1 µM
Cc1cccc(C)c1-c1cc2nc(n1)NS(=O)(=O)c1cc(no1)C(=O)N[C@H](CC(C)(C)C)CO2 [Compound 357],Ent. B Max Activity,CFTR [1],++ (++ is 30-60%)
same,EC50,CFTR [1],1 to 3 µM
Cc1cccc(C)c1-c1cc2nc(n1)NS(=O)(=O)c1cccc(c1)C(=O)NC[C@H](c1ccc(C[Si](C)(C)C)cc1)O2 (stereo in doubt) [Compound 125],EC50,CFTR [1],< 1 µM
O=C1N[C@@H]2CCCC/C=C/c3ccccc3-c3cc(nc(n3)NS(=O)(=O)c3cccc1c3)OC2 [Compound 219],Ent. B Max Activity,CFTR [1],+++ (+++ is >60%)
same,EC50,CFTR [1],< 1 µM
Cc1cccc2c1-c1cc3nc(n1)NS(=O)(=O)c1cccc(c1)C(=O)N[C@H](CCCCCCCC2)CO3 [Compound 213],Ent. B Max Activity,CFTR [1],+++ (+++ is >60%)
same,EC50,CFTR [1],< 1 µM
Cc1cccc(C)c1-c1cc2nc(n1)NS(=O)(=O)c1cccc(c1)C(=O)N[C@@H]1CCN(Cc3ccccc3)C[C@H]1O2 (stereo in doubt) [Compound 382],Ent. A Max Activity,CFTR [2]; Table 9,+++ (+++ is >60%)
same,EC50,CFTR [2]; Table 9,< 1 µM
COc1cccc(-c2cccc(C(=O)N3CCC4(CC3)CNC(=O)c3cccc(c3)S(=O)(=O)Nc3nc(cc(-c5c(C)cccc5C)n3)OC4)c2)c1 [Compound 459],Ent. A Max Activity,CFTR [2]; Enteroid Assay A,++ (++ is 30-60%)
same,EC50,CFTR [2]; Enteroid Assay A,1 to 3 µM
Cc1cccc(C)c1-c1cc2nc(n1)NS(=O)(=O)c1cccc(c1)C(=O)NC(CC1CCCC1)CO2 (stereo not shown) [Compound 188],Ent. A Max Activity,CFTR [2]; Table 8,+++ (+++ is >60%)
same,EC50,CFTR [2]; Table 8,< 1 µM
Cc1cccc(C)c1-c1cc2nc(n1)NS(=O)(=O)c1cccc(c1)C(=O)NC[C@@H](c1ccc(C(C)(C)C(F)(F)F)cc1)O2 [Compound 262],Ent. A Max Activity,CFTR [2]; Table 9,+++ (+++ is >60%)
same,EC50,CFTR [2]; Table 9,< 1 µM
Cc1cccc(C)c1-c1cc2nc(n1)NS(=O)(=O)c1cccc(c1)CNC1C[C@@H](CN(C(=O)OCc3ccccc3)C1)O2 (stereo in doubt) [Compound 193],Ent. A Max Activity,CFTR [2]; Enteroid Assay A,++ (++ is 30-60%)
same,EC50,CFTR [2]; Enteroid Assay A,1 to 3 µM
Cc1cccc(C)c1-c1cc2nc(n1)NS(=O)(=O)c1cccc(c1)C(=O)N[C@@H](c1ccccc1)CCO2 [Compound 290],EC50,CFTR [2]; Table 8,1 to 3 µM
Cc1cccc(C)c1-c1cc2nc(n1)NS(=O)(=O)c1cccc(c1)C(=O)NCC(c1ccc3c(c1)C(C)(C)CCC3(C)C)O2 (stereo not shown) [Compound 117],Ent. A Max Activity,CFTR [2]; Table 8,+++ (+++ is >60%)
same,EC50,CFTR [2]; Table 8,< 1 µM
CC(C)C[C@@H]1COc2cc(C3CCOCC3)nc(n2)NS(=O)(=O)c2cccc(c2)C(=O)N1 [Compound 314],Ent. A Max Activity,CFTR [2]; Table 8,+ (+ is <30%)
same,EC50,CFTR [2]; Table 8,3 to 30 µM
Cc1cccc(C)c1-c1cc2nc(n1)NS(=O)(=O)c1cccc(c1)C(=O)NCC(c1cnc(C(C)(C)C)nc1)O2 (stereo not shown) [Compound 285],Ent. A Max Activity,CFTR [2]; Table 8,+ (+ is <30%)
Cc1cccc(C)c1-c1cc2nc(n1)NS(=O)(=O)c1cccc(c1)C(=O)N[C@H](CC1(C(F)(F)F)CC1)CO2 (stereo in doubt) [Compound 289],EC50,CFTR [2]; Table 8,1 to 3 µM
Cc1cccc(C)c1-c1cc2nc(n1)NS(=O)(=O)c1cc(cc(C3=CCCCC3)c1)C(=O)N[C@H](CC(C)C)CO2 [Compound 139],Ent. A Max Activity,CFTR [2]; Table 8,+ (+ is <30%)
"Cc1cccc(C)c1-c1cc2nc(n1)NS(=O)(=O)c1cccc(c1)C(=O)NC[C@@H](c1ccc(C(C)(C)C)cn1)O2 (single isomer, unassigned) [Compound 8, 10-(5-tert-butyl-2-pyridyl)-6-(2,6-dimethylphenyl)-2,2-dioxo-9-oxa-2λ^6-thia-3,5,12,19-tetrazatricyclo[12.3.1.14,8]nonadeca-1(18),4(19),5,7,14,16-hexaen-13-one]",Ent. A Max Activity,CFTR [2]; Table 8,+ (+ is <30%)
Cc1cccc(C)c1-c1cc2nc(n1)NS(=O)(=O)c1cccc(c1)C(=O)NC(CCC1CCOCC1)CO2 (stereo not shown) [Compound 186],Ent. A Max Activity,CFTR [2]; Table 8,+++ (+++ is >60%)
same,EC50,CFTR [2]; Table 8,3 to 30 µM
CCC(CC)(CC)c1ccc(C2CNC(=O)c3cccc(c3)S(=O)(=O)Nc3nc(cc(-c4c(C)cccc4C)n3)O2)cc1 (stereo not shown) [Compound 266],Ent. A Max Activity,CFTR [2]; Table 9,++ (++ is 30-60%)
same,EC50,CFTR [2]; Table 9,< 1 µM
Cc1cccc(C)c1-c1cc2nc(n1)NS(=O)(=O)c1cccc(c1)C(=O)NCC(c1ccc(C3CC3)cc1)O2 (stereo not shown) [Compound 268],Ent. A Max Activity,CFTR [2]; Table 8,+++ (+++ is >60%)
same,EC50,CFTR [2]; Table 8,< 1 µM
Cc1cccc(C)c1-c1cc2nc(n1)NS(=O)(=O)c1cccc(c1)C(=O)NC(C(C)C)CO2 (stereo not shown) [Compound 355],Ent. A Max Activity,CFTR [2]; Enteroid Assay A,++ (++ is 30-60%)
same,EC50,CFTR [2]; Enteroid Assay A,1 to 3 µM
Cc1cccc(C)c1-c1cc2nc(n1)NS(=O)(=O)c1ccccc1C(=O)NC(CC(C)C)CO2 (stereo not shown) [Compound 223],Ent. A Max Activity,CFTR [2]; Table 9,+ (+ is <30%)
Cc1cccc(C)c1-c1cc2nc(n1)NS(=O)(=O)c1cccc(c1)C(=O)NCC(Cc1ccc(C(C)(C)C)cc1)O2 (stereo not shown) [Compound 241],Ent. A Max Activity,CFTR [2]; Table 8,+++ (+++ is >60%)
same,EC50,CFTR [2]; Table 8,< 1 µM
Cc1cccc(C)c1-c1cc2nc(n1)NS(=O)(=O)c1cc(cc(C3CCOCC3)c1)C(=O)N[C@H](CC(C)C)CO2 [Compound 138],Ent. A Max Activity,CFTR [2]; Table 8,+ (+ is <30%)
Cc1cccc(C)c1-c1cc2nc(n1)NS(=O)(=O)c1cccc(c1)C(=O)N[C@@H](CC1(C(F)(F)F)CC1)CO2 [Compound 288],Ent. A Max Activity,CFTR [2]; Table 8,+++ (+++ is >60%)
same,EC50,CFTR [2]; Table 8,< 1 µM
COc1ccccc1C1CNC(=O)c2cccc(c2)S(=O)(=O)Nc2nc(cc(-c3c(C)cccc3C)n2)O1 (stereo not shown) [Compound 280],Ent. A Max Activity,CFTR [2]; Table 8,+++ (+++ is >60%)
same,EC50,CFTR [2]; Table 8,< 1 µM
Cc1cccc(C)c1-c1cc2nc(n1)NS(=O)(=O)c1cc(cc(-c3ccc(C(C)(C)C)cc3)c1)C(=O)N[C@H](CC(C)C)CO2 [Compound 135],Ent. A Max Activity,CFTR [2]; Table 8,+ (+ is <30%)
Cc1cccc(C)c1-c1cc2nc(n1)NS(=O)(=O)c1cccc(c1)C(=O)NC[C@@H](c1ccc(C(C)(C)C(F)(F)F)cc1)O2 [Compound 256],Ent. A Max Activity,CFTR [2]; Table 9,+++ (+++ is >60%)
same,EC50,CFTR [2]; Table 9,< 1 µM
Cc1cccc(CO)c1-c1cc2nc(n1)NS(=O)(=O)c1cccc(c1)C(=O)N[C@H](CC(C)C)CO2 [Compound 395],Ent. A Max Activity,CFTR [2]; Table 9,++ (++ is 30-60%)
same,EC50,CFTR [2]; Table 9,3 to 30 µM
"Cc1cccc(C)c1-c1cc2nc(n1)NS(=O)(=O)c1cccc(c1)C(=O)NCC(c1ccc(CCC(C)(C)C)cc1)O2 (stereo not shown) [Compound 24, 10-[4-(3,3-dimethylbutyl)phenyl]-6-(2,6-dimethylphenyl)-2,2-dioxo-9-oxa-2λ^6-thia-3,5,12,19-tetrazatricyclo[12.3.1.14,8]nonadeca-1(18),4(19),5,7,14,16-hexaen-13-one]",Ent. A Max Activity,CFTR [2]; Table 9,+++ (+++ is >60%)
same,EC50,CFTR [2]; Table 9,< 1 µM
Cc1cccc(C)c1-c1cc2nc(n1)NS(=O)(=O)c1cccc(c1)C(=O)NCC(c1ccc(Cl)cc1)O2 (stereo not shown) [Compound 251],Ent. A Max Activity,CFTR [2]; Table 8,+++ (+++ is >60%)
same,EC50,CFTR [2]; Table 8,< 1 µM
